Results from patent US11021471B2, “Antibacterial compounds” (FORGE THERAPEUTICS, INC., priority 2017, dated 2021).
Values after ≈ are worked out from the molar mass of the structure shown.

Legend:
[1] = tested on: E. coli; assay: Bacterial susceptibility testing, MIC by broth microdilution (CLSI); assay type: cell-based; conditions: Escherichia coli, cation adjusted Mueller-Hinton Broth, 35° C., 18-24 h
Protocol: (§1) Minimal inhibitory concentrations (MIC) were determined by the broth microdilution method in accordance with the Clinical and Laboratory Standards Institute (CLSI) guidelines. In brief, organism suspensions were adjusted to a 0.5 McFarland standard to yield a final inoculum between 3×10^5 and 7×10^5 colony-forming units (CFU)/mL. Drug dilutions and inocula were made in sterile, cation adjusted Mueller-Hinton Broth (Beckton Dickinson). An inoculum volume of 100 μL was added to wells containing 100 μL of broth with 2-fold serial dilutions of drug. All inoculated microdilution trays were incubated in ambient air at 35° C. for 18-24 h. Following incubation, the lowest concentration of the drug that prevented visible growth (OD600 nm<0.05) was recorded as the MIC. Performance of the assay was monitored by the use of laboratory quality-control strains and levofloxacin, a compound with a defined MIC spectrum, in accordance with CLSI guidelines.

[2] = tested on: S. aureus; assay: as above; assay type: cell-based; conditions: Staphylococcus aureus, cation adjusted Mueller-Hinton Broth, 35° C., 18-24 h
Protocol: as §1

MIC [1]	MIC [2]	Compound
> 32 µg/mL		O=C(Nc1ccc(C#CC#Cc2ccccc2)cc1)c1occc(=O)c1O [Compound 2, 3-hydroxy-4-oxo-N-(4-(phenylbuta-1,3-diyn-1-yl)phenyl)-4H-pyran-2-carboxamide]
> 32 µg/mL	> 32 µg/mL	O=c1ccoc(CN(CCO)c2ccc(-c3ccccc3)cc2)c1O [Compound 7, 2-(([1,1′-biphenyl]-4-yl(2-hydroxyethyl)amino)methyl)-3-hydroxy-4H-pyran-4-one]

Second part, the compound before the results:

Compound	MIC [1]	MIC [2]
CS(=O)(=O)C(Cc1ccc(C#Cc2ccc(CN3CCOCC3)cc2)cc1)c1occc(=O)c1O (stereo not drawn) [Compound 1, 3-hydroxy-2-(1-(methylsulfonyl)-2-(4-((4-(morpholinomethyl)phenyl)ethynyl)phenyl)ethyl)-4H-pyran-4-one]	> 32 µg/mL	
CS(=O)(=O)NCC(Cc1ccc(-c2ccccc2)cc1)c1occc(=O)c1O (stereo not drawn) [Compound 3, N-(3-([1,1′-biphenyl]-4-yl)-2-(3-hydroxy-4-oxo-4H-pyran-2-yl)propyl)methanesulfonamide]	> 32 µg/mL	> 32 µg/mL
CS(=O)(=O)CC(Cc1ccc(-c2ccccc2)cc1)c1occc(=O)c1O (stereo not drawn) [Compound 4, 2-(1-([1,1′-biphenyl]-4-yl)-3-(methylsulfonyl)propan-2-yl)-3-hydroxy-4H-pyran-4-one]	> 32 µg/mL	> 32 µg/mL
O=c1ccoc(C(CO)Cc2ccc(-c3ccccc3)cc2)c1O (stereo not drawn) [Compound 5, 2-(1-([1,1′-biphenyl]-4-yl)-3-hydroxypropan-2-yl)-3-hydroxy-4H-pyran-4-one]	> 32 µg/mL	> 32 µg/mL
NCC(Cc1ccc(-c2ccccc2)cc1)c1occc(=O)c1O (stereo not drawn) [Compound 6, 2-(1-([1,1′-biphenyl]-4-yl)-3-aminopropan-2-yl)-3-hydroxy-4H-pyran-4-one]	8 µg/mL (≈ 24.9 µM)	8 µg/mL (≈ 24.9 µM)
